Reference: US10669239B2, “Tetrahydronaphthyl urea derivative” (MOCHIDA PHARMACEUTICAL CO., LTD., priority 2017, dated 2020)

Biological target: human TrkA protein (Homo sapiens (Human), UniProt P04629)
Assay: TrkA LanthaScreen Eu Kinase Binding Assay (binding activity for human TrkA protein)
Conditions: TrkA enzyme, Kinase Tracer 236, TR-FRET, 60 minutes at room temperature
Experimental: (Pharmacological Experimental Example 1): Evaluation of Binding Activity for Human TrkA Protein
Measurement was carried out using TrkA LanthaScreen (registered trademark) Eu Kinase Binding Assay (ThermoFisher SCIENTIFIC). To a 384 well plate (Corning), 2.5 μL of the test compound having various concentrations and diluted with Kinase buffer (ThermoFisher SCIENTIFIC) and 2.5 μL of 15 nM TrkA enzyme (ThermoFisher SCIENTIFIC) were added. Moreover, 5 μL of 3 nM Eu-anti-His Tag antibody (ThermoFisher SCIENTIFIC) and 5 μL of 30 nM Kinase (registered trademark) Tracer 236 (ThermoFisher SCIENTIFIC) were added, followed by reaction at room temperature for 60 minutes. After the reaction, the fluorescence intensity of Europium (Emission wavelength 615 nm) and TR-FRET (Emission wavelength 665 nm) with an excitation wavelength of 340 nm were measured with EnVision 2100 (PerkinElmer) to calculate the fluorescence ratio as the amount of the test compound and the TrkA enzyme bonded. The inhibitory activity (IC50 value) of each test compound was calculated with the fluorescence ratio of the well to which a solvent was added instead of the test compound being 0% and the fluorescence ratio of the well without addition of the TrkA protein being 100%.
In Table 1, Compounds 1 to 62 respectively mean Compounds 1 to 62 synthesized in accordance with Examples 1 to 62 described later.

human TrkA protein, sequence (P04629 33-796): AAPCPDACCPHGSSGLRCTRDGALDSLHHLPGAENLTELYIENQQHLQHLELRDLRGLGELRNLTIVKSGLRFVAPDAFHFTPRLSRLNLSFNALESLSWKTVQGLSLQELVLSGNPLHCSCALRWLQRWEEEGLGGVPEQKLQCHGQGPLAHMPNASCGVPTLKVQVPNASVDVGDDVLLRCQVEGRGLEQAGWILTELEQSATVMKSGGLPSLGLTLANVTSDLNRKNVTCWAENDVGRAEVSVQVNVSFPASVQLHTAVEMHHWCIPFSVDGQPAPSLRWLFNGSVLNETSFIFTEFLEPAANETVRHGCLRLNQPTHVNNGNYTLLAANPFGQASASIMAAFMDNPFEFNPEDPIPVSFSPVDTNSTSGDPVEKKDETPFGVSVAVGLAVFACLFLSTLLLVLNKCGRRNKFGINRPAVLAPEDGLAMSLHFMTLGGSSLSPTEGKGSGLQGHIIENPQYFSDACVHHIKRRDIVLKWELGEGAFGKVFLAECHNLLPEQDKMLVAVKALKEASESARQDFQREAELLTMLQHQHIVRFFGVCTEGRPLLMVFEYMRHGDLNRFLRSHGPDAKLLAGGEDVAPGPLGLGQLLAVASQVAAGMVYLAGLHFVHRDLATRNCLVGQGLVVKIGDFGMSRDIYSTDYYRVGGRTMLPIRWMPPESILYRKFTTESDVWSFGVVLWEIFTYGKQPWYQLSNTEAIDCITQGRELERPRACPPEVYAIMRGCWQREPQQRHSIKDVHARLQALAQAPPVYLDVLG

Compound: Cc1cc(NC(=O)N[C@@H]2c3cc(F)c(F)cc3C(C)(C)C[C@H]2O)c(-c2ccccc2)nc1-c1ccnc(CO)c1 (racemic) [Compound 56, rac-1-((1R,2R)-6,7-difluoro-2-hydroxy-4,4-dimethyl-1,2,3,4-tetrahydronaphthalen-1-yl)-3-(2′-(hydroxymethyl)-3-methyl-6-phenyl-[2,4′-bipyridin]-5-yl)urea]
- IC50: ≤ 50 nM
